Measured values taken from patent US4201860A, “Purine derivatives” (Bristol-Myers Company, priority 1979, dated 1980).

Columns and labels:
[1] = test system: Arterial blood pressure (ABP); experiment: In vivo hypotensive activity, arterial blood pressure (ABP) in anesthetized guinea pig; details: arterial blood pressure lowering (ED20, 20% reduction)
Description: Pharmac., 21, 379 (1969). The trachea of anesthetized guinea pig was cannulated and the ITP recorded on a polygraph under artificial ventilation. Arterial blood pressure (ABP; measure of hypotensive activity) was also measured during the experiment. Data was obtained for both intravenous and intraduodenal administration.

[2] = test system: arterial blood pressure / intratracheal pressure; experiment: Separation of bronchodilator and cardiovascular effects, ratio of hypotensive ED20 / bronchodilating ED50; type: in vivo, guinea pig
Description: The trachea of anesthetized guinea pig was cannulated and the ITP recorded on a polygraph under artificial ventilation. Arterial blood pressure (ABP; measure of hypotensive activity) was also measured during the experiment. Data was obtained for both intravenous and intraduodenal administration.
To assess the separation of desirable bronchodilator activity from undesirable cardiovascular (hypotensive) effect in the test compounds, the ratio of hypotensive ED20 /bronchodilating ED50 was calculated and indicated in Table 1.

platelet aggregation = details: in words; Chem Pharm. Bull., 25(7), 1811-1821 (1977); cited from earlier work
[3] = in words; known disadvantages; cited from earlier work
[4] = in words; cited from earlier work

## Nc1nc(Cl)nc2c1ncn2C1C=CCCC1 (stereo not shown) [Cl]
[1]; Intravenous
  ABP lowering, ED20 (20% reduction): 2.5 mg/kg
[2]; Intravenous
  ABP/ITP: 17

## CC(C)COc1nc(N)c2ncn(C3CCCCC3)c2n1 [iso-C4 H9 O]
[1]; Intravenous
  ABP lowering, ED20 (20% reduction): > 3 mg/kg

## CCCCCOc1nc(N)c2ncn(C3C=CCCC3)c2n1 (stereo not shown) [n-C5 H11 O]
[1]; Intravenous
  ABP lowering, ED20 (20% reduction): > 3 mg/kg

## CCCCOc1nc(N)c2ncn(C3CCCCC3)c2n1 [n-C4 H9 O]
[1]; Intraduodenal
  ABP lowering, ED20 (20% reduction): 8.3 mg/kg
[1]; Intravenous
  ABP lowering, ED20 (20% reduction): 4.4 mg/kg
[2]; Intraduodenal
  ABP/ITP: 5.9
[2]; Intravenous
  ABP/ITP: 1467

## CCCCOc1nc(N)c2ncn(C3C=CCCC3)c2n1 (stereo not shown) [n-C4 H9 O]
[1]; Intravenous
  ABP lowering, ED20 (20% reduction): > 3 mg/kg
[2]; Intravenous
  ABP/ITP: > 4.8

## CCCOc1nc(N)c2ncn(C3C=CCCC3)c2n1 (stereo not shown) [n-C3 H7 O]
[1]; Intraduodenal
  ABP lowering, ED20 (20% reduction): 2.4 mg/kg
[1]; Intravenous
  ABP lowering, ED20 (20% reduction): 2.0 mg/kg
[2]; Intraduodenal
  ABP/ITP: 2.0
[2]; Intravenous
  ABP/ITP: 5.9

## Nc1nc(SC2CCCC2)nc2c1ncn2C1CCCC1
Platelet aggregation
  platelet aggregation inhibition: slightly effective

## CC(C)COc1nc(N)c2ncn(C3C=CCCC3)c2n1 (stereo not shown) [iso-C4 H9 O]
[1]; Intravenous
  ABP lowering, ED20 (20% reduction): 2.4 mg/kg

## CCCOc1nc(N)c2ncn(C3CCCCC3)c2n1 [n-C3 H7 O]
[1]; Intraduodenal
  ABP lowering, ED20 (20% reduction): 18 mg/kg
[1]; Intravenous
  ABP lowering, ED20 (20% reduction): 4.4 mg/kg
[2]; Intraduodenal
  ABP/ITP: 15
[2]; Intravenous
  ABP/ITP: 12

## CCCCCCOc1nc(N)c2ncn(C3CCCCC3)c2n1 [n-C6 H13 O]
[1]; Intravenous
  ABP lowering, ED20 (20% reduction): > 3 mg/kg

## CCCCCCOc1nc(N)c2ncn(C3C=CCCC3)c2n1 (stereo not shown) [n-C6 H13 O]
[1]; Intravenous
  ABP lowering, ED20 (20% reduction): 2.7 mg/kg

## Cn1c(=O)c2[nH]cnc2n(C)c1=O [aminophylline]
[3]
  side effects: gastric irritation and cardiovascular and central nervous system side effects
[4]
  solubility: readily soluble

## CCCCCOc1nc(N)c2ncn(C3CCCCC3)c2n1 [n-C5 H11 O]
[1]; Intravenous
  ABP lowering, ED20 (20% reduction): > 3 mg/kg

## CCOc1nc(N)c2ncn(C3CCCCC3)c2n1 [C2 H5 O]
[1]; Intravenous
  ABP lowering, ED20 (20% reduction): 2.5 mg/kg
[2]; Intravenous
  ABP/ITP: 6.8

## CCOc1nc(N)c2ncn(C3C=CCCC3)c2n1 (stereo not shown) [C2 H5 O]
[1]; Intraduodenal
  ABP lowering, ED20 (20% reduction): 12 mg/kg
[1]; Intravenous
  ABP lowering, ED20 (20% reduction): 4.0 mg/kg
[2]; Intraduodenal
  ABP/ITP: 19
[2]; Intravenous
  ABP/ITP: 12
